Consider 13 compounds from US20260258025A1, “INHIBITORS OF TDP-43 AND TAU AGGREGATION” (Aquinnah Pharmaceuticals, inc., priority 2023, published 2026).

For the assay, the system named is TDP-43 aggregation. Nature of the assay: TDP-43 aggregation assay in SY5Y TDP-43WT cells (high content imaging). The class given is cell-based. To be noted: Homo sapiens, tetracycline induction 24 hrs, 1 hour compound pre-treatment, sodium arsenite 23 hrs, 8-point dose curve, percentage of cells with TDP-43 aggregates, read-out: IC50, Inhibition of TDP-43 Aggregation. How it is done: Exemplary compounds disclosed herein were evaluated for efficacy in inhibiting TDP-43 inclusions cellular imaging-based assays.
The cellular model was in human neuroblastoma SH SYSY cells (ATCC, cat #: CRL-2266). The parent cell line was first engineered to stably express a tetracycline repressor protein (designated as TREx-SY5Y cells, customer cell line development by ThermoFisher). Wild-type human TDP-43 with a C-terminus eGFP tag was synthesized and cloned into pcDNA5/TO expression vector (ThermoFisher). The plasmid was transfected into TREx-SY5Y cells using Lipofectamine 2000 and hygromycin resistant colonies were selected. Expression of TDP-43WT::eGFP was examined under fluorescent microscopy and Western blot upon tetracycline induction. The clone that was used for TDP-43 aggregation assay is referred to as SY5Y TDP-43WT cells hereafter.
Compound inhibition of TDP-43 aggregation was tested in an 8-point dose curve in 96-well format. Briefly, TDP-43WT::eGFP expression was induced with […] for 24 hrs (SY5Y TDP-43WT cells). The cells were then pre-treated for 1 hour with exemplary compounds before adding sodium arsenite to a final concentration of […] and incubated for another 23 hrs. At the end of the treatment the cell monolayers were washed in PBS and fixed in 4% paraformaldehyde (PFA), diluted from 16% stock (Electron Microscopy Sciences cat: #15710-S). The inhibitory effect on TDP-43 aggregation was measured using CellInsight CX7 high content imager (ThermoFisher). The percentage of cells with TDP-43 aggregates was calculated based on the total number of cells identified by DAPI staining. An 8-point dose response curve was generated, and the IC50 for each compound tested was determined (Table 3).
In Table 3 below, A indicates an IC50 (nM)<500 nM, B indicates an IC50 (nM) 500 nM to <1000 nM, C indicates an IC50 (nM) 1000 nM to <2000 nM, D indicates an IC50 (nM) 2000 nM to <6000 nM, and E indicates an IC50 (nM) 6000 nM to ≤10000 nM.
Turning to `Cc1cc(-c2ccc(COc3ccccc3)cc2)sc1C(=O)N1CC[C@H](N)C1` [Compound 204, (S)-(3-aminopyrrolidin-1-yl){3-methyl-5-[4-(phenoxymethyl)phenyl]thiophen-2-yl}methanone], the IC50 lay within 6000 to 10000 nM.
On to `Cc1cc(-c2ccc(C3CCNCC3)cc2)sc1C(=O)N1CC[C@H](N)C1` [Compound 205, (S)-(3-aminopyrrolidin-1-yl){3-methyl-5-[4-(piperidin-4-yl)phenyl]thiophen-2-yl}methanone], for which the IC50 was 500 to 1000 nM.
Next, `COC(C)CN1CCC(c2ccc(-c3cc(Cl)c(C(=O)N4CC[C@H](N)C4)s3)cc2F)CC1` (stereo partly drawn) [Compound 250, ((S)-3-aminopyrrolidin-1-yl)(3-chloro-5-(3-fluoro-4-(1-(2-methoxypropyl)piperidin-4-yl)phenyl)thiophen-2-yl)methanone]: < 500 nM.
Next, `COCCN1CCC(c2ccc(-c3cc(Cl)c(C(=O)N4CC[C@H](N)C4)s3)cc2F)CC1` [Compound 283, (S)-(3-aminopyrrolidin-1-yl)(3-chloro-5-(3-fluoro-4-(1-(2-methoxyethyl)piperidin-4-yl)phenyl)thiophen-2-yl)methanone]: < 500 nM.
Next, `CC(C)N1CCC(c2ccc(-c3cc(Cl)c(C(=O)N4CC[C@H](N)C4)s3)cc2F)CC1` [Compound 284, (S)-(3-aminopyrrolidin-1-yl)(3-chloro-5-(3-fluoro-4-(1-isopropylpiperidin-4-yl)phenyl)thiophen-2-yl)methanone]: < 500 nM; `Cc1cc(-c2ccc(N3CCN(C)CC3)cc2)sc1C(=O)N1CC[C@H](N)C1` [Compound 185, (S)-(3-aminopyrrolidin-1-yl)(3-methyl-5-(4-(4-methylpiperazin-1-yl)phenyl)thiophen-2-yl)methanone]: < 500 nM; `Cc1cc(-c2ccc(C3CCN(C(C)C)CC3)c(F)c2)sc1C(=O)N1CC[C@H](N)C1` [Compound 282, (S)-(3-aminopyrrolidin-1-yl)(5-(3-fluoro-4-(1-isopropylpiperidin-4-yl)phenyl)-3-methylthiophen-2-yl)methanone]: < 500 nM.
With `N[C@H]1CCN(C(=O)c2sc(-c3ccc(C4CCN(CCO)CC4)c(F)c3)cc2Cl)C1` [Compound 263, (S)-(3-aminopyrrolidin-1-yl)(3-chloro-5-(3-fluoro-4-(1-(2-hydroxyethyl)piperidin-4-yl)phenyl)thiophen-2-yl)methanone], the IC50 is < 500 nM.
Next, `Cc1cc(-c2ccc(C3CCN(CCO)CC3)c(F)c2)sc1C(=O)N1CC[C@H](N)C1` [Compound 262, (S)-(3-aminopyrrolidin-1-yl)(5-(3-fluoro-4-(1-(2-hydroxyethyl)piperidin-4-yl)phenyl)-3-methylthiophen-2-yl)methanone]: < 500 nM; `Cc1cc(-c2ccc(N3CCN(C4COC4)CC3)cc2)sc1C(=O)N1CC[C@H](N)C1` [Compound 154, (S)-(3-aminopyrrolidin-1-yl)(3-methyl-5-(4-(4-(oxetan-3-yl)piperazin-1-yl)phenyl)thiophen-2-yl)methanone]: 500 to 1000 nM.
Next, `N[C@H]1CCN(C(=O)c2sc(-c3ccc(C4CCN(C5CCCCC5)CC4)c(F)c3)cc2Cl)C1` [Compound 269, (S)-(3-aminopyrrolidin-1-yl)(3-chloro-5-(4-(1-cyclohexylpiperidin-4-yl)-3-fluorophenyl)thiophen-2-yl)methanone]: < 500 nM; `CCN1CCC(c2ccc(-c3cc(C)c(C(=O)N4CC[C@H](N)C4)s3)cc2F)CC1` [Compound 281, (S)-(3-aminopyrrolidin-1-yl)(5-(4-(1-ethylpiperidin-4-yl)-3-fluorophenyl)-3-methylthiophen-2-yl)methanone]: < 500 nM; `Cc1cc(-c2ccc(COC3CCOCC3)cc2)sc1C(=O)N1CC[C@H](N)C1` [Compound 202, (S)-(3-aminopyrrolidin-1-yl)(3-methyl-5-(4-((tetrahydro-2H-pyran-4-yloxy)methyl)phenyl)thiophen-2-yl)methanone]: 1000 to 2000 nM.
